Measured values reported in US8592648B2, “Seed treatment with combinations of pyrethrins/pyrethroids and thiamethoxam” (Monsanto Technology, LLC, priority 2000, dated 2013).

Experiments:
[1] = system: black cutworm larvae; assay: Black cutworm feeding damage on corn shoots and foliage, seed treatment vs soil granular treatment (Reference Example 1); type: in vivo; conditions: for Plant Defol. 3 DAI / Plant Defol. 7 DAI / Plant Defol. 10 DAI: rating 1=no damage, 10=complete defoliation
Experimental: This example compares the efficacy of seed treatment with lambda-cyhalothrin (CAS #91465-08-6) to soil granular treatments with tefluthrin (CAS #79538-32-2) against feeding damage by black cutworm larvae on shoots and foliage.
(§1) A lambda-cyhalothrin seed treatment formulation was prepared by diluting the WARRIOR® T insecticide (Zeneca Ag Products, Wilmington, Del.), which contains 11.4% lambda-cyhalothrin as the active ingredient, into water as a carrier. This formulation was applied for one minute at room temperature to twenty-five grams of Pioneer corn seed (Cultivar PN3394) in a rotostatic seed treater at a rate of 125 g, 250 g or 500 g active ingredient (Al) to 100 kg seed. The treated seeds were allowed to sit uncapped for four to twenty-four hours before planting.
(§2) Treated and untreated seeds (Pioneer hybrid PN3394) were planted in a soil mix consisting of Dupo silt loam, 30% Perlite, 20% coarse sand (WB-10 grade) in six groups of tubs (20 in. L×15 in. W×8 in. D). Twelve seeds were planted per tub and three tubs were planted for each treatment regimen. Soil applications of FORCE® 3GR, which contains 3% tefluthrin granule as the active ingredient, were used for two sets of tubs containing untreated seeds. The FORCE 3GR was applied either in-furrow or incorporated into a 5 inch band on the soil surface at the time of planting. The tubs were overhead irrigated until the plants were infested with black cutworm larvae.
The rate of application for the FORCE 3GR was reported in units of grams of the active ingredient per hectare (g/ha), while the rate of application of the WARRIOR T to the seeds was reported in units of grams of the active ingredient per 100 kilograms of the seeds (g/100 kg). Although the conversion of one of these units to the other will vary somewhat according to the type of seed that is being used, the size and weight of the seed, and the density of planting that is used—among other things—an approximate conversion for corn seed can be carried out as follows. Assuming a seed application rate of lambda cyhalothrin of, for example, 125 g/100 kg of seed and a planting density of 15 lbs seed/ac, about 14.7 acres can be planted with 100 kg of the seed. This is an effective application rate of about 8.5 g of lambda cyhalthrin per acre. At 2.47 ac/ha, the seed treatment level of 125 g/100 kg is approximately equivalent to a surface banding treatment at about 21 g/ha.
The corn plants were infested at 12 DAP, which corresponds to late growth stage V1 by placing two black cutworm larvae at ¾ instar on the soil surface near the base of the plant. Plants were rated 3, 7 and 10 days after infestation (DAI) for the number of cut plants, as well as damage from leaf feeding. The percent stand reduction due to plant cutting was calculated by dividing the number of cut plants into the number of plants present at infestation. The foliar feeding injury was evaluated using a rating scale of 1=no damage and 10=complete defoliation.

[2] = system: corn plants (Pioneer hybrid PN3394); assay: Vigor rating of corn plants before infestation (indication of phytotoxicity); type: in vivo; conditions: rating 1=extremely low vigor, 10=highest
Experimental: as §1, §2
At twelve days after planting (DAP) but before infestation, the overall health of each plant was rated by looking at emergence, height and appearance. This vigor rating gives an indication of any phytotoxicity from the seed or soil treatment. A rating of 1 indicates extremely low vigor while 10 is the highest vigor rating.

## Cc1c(F)c(F)c(COC(=O)[C@@H]2[C@H](/C=C(\Cl)C(F)(F)F)C2(C)C)c(F)c1F (racemic) [Tefluthrin, (2,3,5,6-tetrafluoro-4-methylphenyl)-methyl-(1 alpha, 3 alpha)-(Z)-(±)-3-(2-chloro-3,3,3-trifluoro-1-propenyl)-2,2-dimethylcyclopropanecarboxylate]
[1]; banded 30 g/ha (FORCE 3GR)
  % Stand Reduct'n 3 DAI: 0.0%
[2]; banded 30 g/ha (FORCE 3GR)
  Vigor at 12 DAP: 8.7
[2]; in-furrow 30 g/ha (FORCE 3GR)
  Vigor at 12 DAP: 9.0

## CC1(C)[C@H](C(=O)O[C@H](C#N)c2cccc(Oc3ccccc3)c2)[C@@H]1/C=C(\Cl)C(F)(F)F [λ-cyhalothrin, [1 alpha(s), 3 alpha(z)]-cyano(3-phenoxyphenyl) methyl-3-(2-chloro-3,3,3-trifluoro-1-propenyl)-2,2-dimethylcyclopropane carboxylate]
[1]; seed treatment 125 g/100 kg
  Plant Defol. 3 DAI: 4.3
  Plant Defol. 7 DAI: 5.0
  Plant Defol. 10 DAI: 3.3
[1]; seed treatment 250 g/100 kg
  % Stand Reduct'n 3 DAI: 3.0%
  Plant Defol. 3 DAI: 3.7
  % Stand Reduct'n 7 DAI: 3.0%
  Plant Defol. 7 DAI: 2.7
  % Stand Reduct'n 10 DAI: 3.0%
  Plant Defol. 10 DAI: 1.7
[1]; seed treatment 250 g/100 kg, listed as lambda-cyhalothrin
  % Stand Reduct'n 7 DAI: 3%
[1]; seed treatment 500 g/100 kg
  % Stand Reduct'n 3 DAI: 0.0%
  Plant Defol. 3 DAI: 2.0
  % Stand Reduct'n 7 DAI: 0.0%
  Plant Defol. 7 DAI: 2.3
  % Stand Reduct'n 10 DAI: 0.0%
  Plant Defol. 10 DAI: 1.0
[1]; seed treatment 500 g/100 kg, listed as lambda-cyhalothrin
  % Stand Reduct'n 7 DAI: 0%
[1]; seed treatment prior to planting
  protection of corn plants against shoot/foliar feeding damage by black cutworm: significant protection
[2]; seed treatment 125 g/100 kg
  Vigor at 12 DAP: 9.0
[2]; seed treatment 250 g/100 kg
  Vigor at 12 DAP: 8.3
[2]; seed treatment 500 g/100 kg
  Vigor at 12 DAP: 8.3
